Assay [1] in a line: Evan's blue leakage into brain tissue (blood brain barrier) after diffuse axonal brain injury. As to conditions: rat diffuse axonal injury. In kind it is in vivo. The procedure:
(§1) We chose to use the compound N-acetyl-L-tryptophan. To induce a primary brain injury a rat model of diffuse axonal injury was used (Heath D L and Vink R (1997). Magnesium sulphate improves neurologic outcome following severe closed head injury in rats. Neurosci Lett; 228: 175-8). N-acetyl-L-tryptophan was then administered intravenously 30 minutes after injury, whilst control animals received drug vehicle alone.

Assay [2] is described as follows: Functional outcome and mortality of brain-injured animals. Particulars: brain injury; administered after injury. In kind it is in vivo, rat. The procedure:
as §1
In order to examine the effects on the cellular inflammatory response, N-acetyl-L-tryptophan was administered intravenously at a dose of 10^−5 mol/kg after injury.

Another assay deals with IL-1β mRNA. In words: IL-1β mRNA expression in brain tissue after brain injury (RT-PCR). Particulars: 10^−5 mol/kg i.v. 30 minutes after injury; brain tissue at 6 hours after injury; normalised to rpL32 (FIG. 2). Format: in vivo, rat. As to the method: (§2) In order to examine the effects on the cellular inflammatory response, N-acetyl-L-tryptophan was administered intravenously at a dose of 10^−5 mol/kg after injury. The expression of mRNA for the inflammatory cytokines IL-1β, IL-6 and TNFα in brain tissue was determined by reverse transcription followed by a polymerase chain reaction (RT-PCR). mRNA levels were normalised with respect to expression of rpL32. Brain tissue samples were collected at 6 hours after injury. Levels of expression of mRNA for the inflammatory cytokines were compared in non-injured animals (sham), injured animals administered drug vehicle alone (control), and injured animals administered a substance P receptor antagonist (NK1). mRNA expression was determined for IL-1β (FIG. 2), IL-6 (FIG. 3) and TNFα (FIG. 4).

The subject of the next assay is IL-6 mRNA. In words: IL-6 mRNA expression in brain tissue after brain injury (RT-PCR). Format: in vivo, rat. As to conditions: 10^−5 mol/kg i.v. 30 minutes after injury; brain tissue at 6 hours after injury; normalised to rpL32 (FIG. 3). As to the method:
as §2

Another assay relates to serum interleukin 6. Kind of assay: Serum IL-6 levels (ELISA) after systemic insult (trauma; trauma plus hypoxia and hypotension). Format: in vivo, rat. As to conditions: 10^−5 mol/kg i.v. 30 minutes after the insult. As to the method: A whole variety of severe insults are capable of triggering a systemic inflammatory response, and subsequent shock reaction. Two approaches were used in these studies, namely trauma (diffuse axonal injury), and an extended period of hypoxia and hypotension. N-acetyl-L-tryptophan was administered intravenously 30 minutes after the insult, whilst control animals received drug vehicle alone. A systemic inflammatory response, generated as a result of these triggers, was determined by a rise in serum interleukin 6 levels. Blood samples were collected at 6 hours after the insult. Changes in serum IL-6 levels were quantified using an enzyme-linked immunosorbent assay (ELISA). In order to examine the effects of an NK1 antagonist on the systemic inflammatory response, N-acetyl-L-tryptophan was administered intravenously at a dose of 10^−5 mol/kg 30 minutes after the insult. Serum levels of IL-6 were compared between animals that were not subject to any insult (sham), animals subject to an insult and then administered drug vehicle alone (control), and animals subject to an insult and administered a substance P receptor antagonist (NK1). IL-6 levels were determined following trauma (FIG. 5), and trauma followed by 15 minutes of hypoxia and hypotension (FIG. 6).
(In general: In an ELISA, binding on a coated surface is turned into a signal by an enzyme label.)

The subject of the next assay is TNFα mRNA. In words: TNFα mRNA expression in brain tissue after brain injury (RT-PCR). In kind it is in vivo, rat. As to conditions: 10^−5 mol/kg i.v. 30 minutes after injury; brain tissue at 6 hours after injury; normalised to rpL32 (FIG. 4). As to the method: as §2
Assay [3] is described as follows: Functional outcome and recovery after trauma or trauma plus hypoxia and hypotension. Format: in vivo, rat. As to conditions: either trauma, or trauma plus hypoxia and hypotension. As to the method:
A whole variety of severe insults are capable of triggering a systemic inflammatory response, and subsequent shock reaction. Two approaches were used in these studies, namely trauma (diffuse axonal injury), and an extended period of hypoxia and hypotension. N-acetyl-L-tryptophan was administered intravenously 30 minutes after the insult, whilst control animals received drug vehicle alone. […] This level of recovery was never seen in the non-treated animals.

In the case of `CC(=O)N[C@@H](Cc1c[nH]c2ccccc12)C(=O)O` [N-acetyl-L-tryptophan], the “closure of the blood-brain barrier, dependence on dose” value in assay [1] (intravenously 30 minutes after injury (FIG. 1)) is reported as “dose-dependent manner”. The “leakage of Evan's blue dye into the brain tissue (closure of the blood brain barrier)” value in assay [1] (intravenously 30 minutes after injury, vs vehicle control (FIG. 1)) was “reduced leakage”. Moreover, in assay [2], the “functional outcome of the injured animals (motor, cognitive and behavioural outcomes)” value was “significantly improved”; the mortality entry is listed as “significant reduction”. Also, the “expression of IL-1β mRNA in brain tissue with respect to non-injured animals” value in the assay on IL-1β mRNA was “no significant differences”. Moreover, the “expression of IL-6 mRNA in brain tissue with respect to non-injured animals” value in the assay with IL-6 mRNA is listed as “no significant differences”. For the same compound, the “serum IL-6 levels with respect to sham animals” value in the assay with serum interleukin 6 (trauma (diffuse axonal injury), blood at 6 hours (FIG. 5)) was “no significant differences”. In the assay on serum interleukin 6 (trauma followed by 15 minutes of hypoxia and hypotension, blood at 6 hours (FIG. 6)), the “serum IL-6 levels with respect to sham animals” value is recorded as “no significant differences”. The “expression of TNFα mRNA in brain tissue with respect to non-injured animals” value with TNFα mRNA is given as “no significant differences”. The “time to normal physiological (spontaneous breathing) and behavioural (feeding and grooming) responses after treatment” value in assay [3] was at most 60 minutes. In addition, the “functional outcome of the animals” value in assay [3] (i.v. 30 minutes after the insult) is “significantly improved”.

The record behind these values is patent US20100311803A1, “METHOD FOR REDUCING INFLAMMATORY RESPONSES AND INFLAMMATION” (Adelaide Research & Innovation Pty Ltd, priority 2006, published 2010).
